According to patent US20230041738A1, “1H-PYRAZOLO[4,3-d]PYRIMIDINE COMPOUNDS AS TOLL-LIKE RECEPTOR 7 (TLR7) AGONISTS” (BRISTOL-MYERS SQUIBB COMPANY, priority 2020, published 2023):

How the values were obtained:
CD69 = assay: Induction of CD69 in human whole blood (hWB); format: cell-based; conditions: 17 hrs at 37 C, CD69 surface staining, 100% set to 1 uM resiquimod, average where performed multiple times
Description: The induction of Type I interferon (IFN) MX-1 genes and the B-cell activation marker CD69 are downstream events that occur upon activation of the TLR7 pathway. The following is a human whole blood assay that measures their induction in response to a TLR7 agonist.
Heparinized human whole blood was harvested from human subjects and treated with test TLR7 agonist compounds at 1 mM. The blood was diluted with RPMI 1640 media and Echo was used to predot 10 nL per well giving a final concentration of 1 uM (10 nL in 10 uL of blood). After mixing on a shaker for 30 sec, the plates were covered and placed in a 37° C. chamber for o/n=17 hrs. Fixing/lysis buffer was prepared (5×→1× in H2O, warm at 37° C.; Cat #BD 558049) and kept the perm buffer (on ice) for later use.
For surface markers staining (CD69): prepared surface Abs: 0.045 ul hCD14-FITC (ThermoFisher Cat #MHCD1401)+0.6 ul hCD19-ef450 (ThermoFisher Cat #48-0198-42)+1.5 ul hCD69-PE (cat #BD555531)+0.855 ul FACS buffer. Added 3 ul/well, spin1000 rpm for 1 min and mixed on shaker for 30 sec, put on ice for 30 mins. Stop stimulation after 30 min with 70 uL of prewarmed 1× fix/lysis buffer and use Feliex mate to resuspend (15 times, change tips for each plate) and incubate at 37C for 10 min.
Centrifuge at 2000 rpm for 5 min aspirate with HCS plate washer, mix on shaker for 30 sec and then wash with 70 uL in dPBS and pelleted 2× s (2000 rpm for 5 min) and 50 ul wash in FACS buffer pelleted 1×s(2000 rpm for 5 min). Mix on shaker for 30 sec. For Intracellular markers staining (MX-1): Add 50 ul of BD Perm buffer III and mix on shaker for 30 sec. Incubate on ice for 30 min (in the dark). Wash with 50 uL of FACS buffer 2× (spin @2300 rpm×5 min after perm) followed by mixing on shaker for 30 sec. Resuspended in 20 ul of FACS buffer containing MX1 antibody ( )(4812)-Alexa 647: Novus Biologicals #NBP2-43704AF647) 20 ul FACS bf+0.8 ul hlgG+0.04 ul MX-1. Spin 1000 rpm for 1 min, mix on shaker for 30se and the samples were incubated at RT in the dark for 45 min followed by washing 2× FACS buffer (spin @2300 rpm×5 min after perm). Resuspend 20 ul (35 uL total per well) of FACS buffer and cover with foil and place in 4° C. to read the following day. Plates were read on iQuePlus. The results were loaded into toolset and IC50 curves are generated in curve master. The y-axis 100% is set to 1 uM of resiquimod.

human TLR7 = biological target: T1, human TLR7 (Homo sapiens, UniProt Q9NYK1); assay: Human TLR7 agonist activity assay (hTLR7 reporter, HEK-Blue TLR7 cells, SEAP); format: cell-based; conditions: HEK-Blue TLR7 cells with SEAP reporter, 18 h treatment; average where assay performed multiple times
T1 construct: host or cells: HEK-Blue TLR7 cells (engineered human embryonic kidney cells)
T1 sequence (Q9NYK1 27-1049): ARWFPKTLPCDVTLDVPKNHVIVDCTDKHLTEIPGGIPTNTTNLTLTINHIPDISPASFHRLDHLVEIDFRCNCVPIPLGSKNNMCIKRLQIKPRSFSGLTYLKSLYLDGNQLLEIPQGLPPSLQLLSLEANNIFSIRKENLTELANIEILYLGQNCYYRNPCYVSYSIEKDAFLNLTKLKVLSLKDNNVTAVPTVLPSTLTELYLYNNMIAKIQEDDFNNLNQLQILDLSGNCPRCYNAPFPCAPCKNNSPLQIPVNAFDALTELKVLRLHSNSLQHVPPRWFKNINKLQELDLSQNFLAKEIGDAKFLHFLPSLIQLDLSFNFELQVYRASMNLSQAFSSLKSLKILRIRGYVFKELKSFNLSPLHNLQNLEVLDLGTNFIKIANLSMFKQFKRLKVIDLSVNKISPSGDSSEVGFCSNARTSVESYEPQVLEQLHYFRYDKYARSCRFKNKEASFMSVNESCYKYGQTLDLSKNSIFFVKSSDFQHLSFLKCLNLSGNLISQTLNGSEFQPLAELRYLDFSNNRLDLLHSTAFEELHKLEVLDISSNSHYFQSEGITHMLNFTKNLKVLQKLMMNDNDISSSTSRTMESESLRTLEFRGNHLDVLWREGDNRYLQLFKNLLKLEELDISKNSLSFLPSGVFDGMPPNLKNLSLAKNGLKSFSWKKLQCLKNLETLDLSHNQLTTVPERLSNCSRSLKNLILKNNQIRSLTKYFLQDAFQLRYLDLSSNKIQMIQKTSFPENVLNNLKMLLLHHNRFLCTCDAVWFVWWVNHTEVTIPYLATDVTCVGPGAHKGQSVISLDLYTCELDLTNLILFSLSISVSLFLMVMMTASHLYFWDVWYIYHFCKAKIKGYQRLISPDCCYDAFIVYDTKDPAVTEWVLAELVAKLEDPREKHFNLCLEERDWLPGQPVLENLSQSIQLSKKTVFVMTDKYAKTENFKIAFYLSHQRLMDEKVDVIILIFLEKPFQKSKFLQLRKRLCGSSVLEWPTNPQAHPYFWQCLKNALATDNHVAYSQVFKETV
Method in brief: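 HEK-Blue TLR7 cells (15,000/well) treated with compound for 18 h at 37 °C, 5% CO2. Secreted SEAP measured with Quanti-Blue, 30 min, OD 620 nm. EC50 taken as concentration giving half-maximal response between baseline and maximum.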

| Structure (SMILES) | EC50 (CD69) [nM] | EC50 (human TLR7) [nM] |
| --- | --- | --- |
| CCCCNc1nc(N)nc2cnn(Cc3ccc(CN4C[C@H]5CN(CCO)C[C@H]5C4)cc3OC)c12 [Compound 139, 2-[(3aR,6aS)-5-[(4-{[5-amino-7-(butylamino)-1H-pyrazolo[4,3-d]pyrimidin-1-yl]methyl}-3-methoxy-pheny)methyl]-octahydropyrrolo[3,4-c]pyrrol-2-yl]ethan-1-ol] | 1.9 | 19.6 |
| CCC[C@@H](CCO)Nc1nc(N)nc2cnn(Cc3cnc(CN4C[C@H]5C[C@@H]4CN5CCO)cc3OC)c12 [Compound 140] | 31.6 | 716 |
| CCC[C@@H](CCO)Nc1nc(N)nc2c(C)nn(Cc3ccc(CN4C[C@H]5C[C@@H]4CN5CCO)cc3OC)c12 [Compound 141, (3S)-3-({5-amino-1-[(4-{[(1R,4R)-5-(2-hydroxyethyl)-2,5-diazabicyclo [2.2.1]heptan-2-yl]methyl}-2-methoxyphenyl)methyl]-3-methyl-1H-pyrazolo[4,3-d]pyrimidin-7-yl}amino)hexan-1-ol] | 10.6 | 59.9 |
| CCCCNc1nc(N)nc2cnn(Cc3ccc(CN4C[C@H]5CNC[C@H]5C4)cc3OC)c12 [Compound 143, 1-[(4-{[(3aR/6aS)-octahydropyrrolo [3,4-c]pyrrol-2-yl]methyl}-2-methoxyphenyl)methyl]-N7-butyl-1H-pyrazolo[4,3-d]pyrimidine-5,7-diamine] | 1.29 | 62.2 |
